In PMC4015918, “Conjugation to a SMAC mimetic potentiates sigma-2 ligand induced tumor cell death in ovarian cancer” (Molecular Cancer, 2014):

Tests used:
[1] = tested on: ovarian cancer cell lines (SKOV3, OVCAR3, HEY A8, HEY A8 MDR); assay: Cell viability (CellTiter-Glo) in a panel of four ovarian cancer cell lines; type: cell-based; settings: increasing doses, 18 hours
Experimental: (A) SKOV3, (B) OVCAR3 (C) HEY A8 and (D) HEY A8 MDR cells were treated with increasing doses of SW43, SW IV-52, SW43 plus SW IV-52, and SW IV-134 for 18 hours. Cell viability was determined by CellTiter-Glo assays [p < 0.015 (A), NS (B), p < 0.017 (C), p < 0.034 (D), one-way ANOVA].
Cells (1 × 10^4) were seeded into 96 well plates. Treatment as described in the figure legends was initiated the following day. Cell viability was determined 18 hours after treatment using CellTiter-Glo Luminiscent Viability Assay (Promega, Madison, WI). Data were recorded with a SpectraMax Gemini microplate spectrofluorometer, Molecular Devices (Silicon Valley, CA).

[2] = tested on: caspase 3, caspase 8, and caspase 9; assay: Western blot for precursors and activated forms of caspases 8, 9 and 3; type: cell-based; settings: 10 μM, 24 hours, different ovarian cancer cell lines
Experimental: Figure 3 Treatment with SW IV-134 results in caspase-mediated cell death. (A) Cells were treated with vehicle only (Ctrl.), SW43 (10 μM), and SW IV-134 (10 μM) for 24 hours. Cell lysates were subjected to Western blot analysis, and probed with antibodies specific for the precursors and activated forms of caspases 8, 9, and 3. (B) SKOV3 cells were treated with SW IV-134 at indicated doses either alone or in the presence of the pan-caspase inhibitor Z-VAD-FMK (20 μM) for 18 hours. Cell viability was determined by CellTiter-Glo assays (p < 0.018, Student’s t-test).
Cells were lysed in radioimmunoprecipitation assay buffer [50 mM Tris, 150 mM sodium chloride, 1.0 mM EDTA, 1% Nonidet P40, and 0.25% SDS (pH 7.0)], supplemented with complete protease inhibitor cocktail (Roche, Mannheim) and phosphatase inhibitor cocktail 1 (Sigma Chemical Co., St. Louis, MO). The protein concentration was determined using a BioRad Dc protein assay kit (Bio-Rad Laboratories, Hercules, CA). Lysates containing 30 μg of protein were run on a 12% polyacrylamide gel and transferred to a PVDF membrane (Bio-Rad Laboratories, Hercules, CA). […]

[3] = Adverse effects after 3 weeks of intraperitoneal treatment: necropsy, complete blood count, serum chemistries; type: in vivo, SCID mice; settings: for Peritonitis at necropsy: also seen in vehicle treated mice
Experimental: In vivo experiments were conducted with 15 mice per treatment group. Treatment involved daily intraperitoneal injections with 90 μL of SW43 (7.5 mM stock), SW IV-134 (7.5 mM stock), or vehicle-only (25% cremophor in H2O) for 3 weeks. Tumor burden was monitored by bioluminescence imaging once a week during the treatment period. At the end of the treatment, 5 mice were randomly removed per treatment group and submitted for necropsy to the Washington University Department of Comparative Medicine. Blood samples were collected by intracardiac withdrawal prior to necropsy for chemistry and hematology work-up. In addition, various key organs were harvested for gross and histopathological examination. The remaining 10 mice from each treatment group were followed over time to examine overall survival. For survival studies, actual death or poor physical condition/large tumor size meeting criteria for euthanasia, constituted a death event.
Supplementary file 1476-4598-13-50-S6.pdf: Additional file 6: Table S2 Complete blood count and serum chemistries for severe combined immunodeficient (SCID) mice treated with SW IV-134, SW43, and vehicle control. SCID mice were treated daily with intra-peritoneal injections of SW IV-134, SW43, and vehicle control for 3 weeks. At the end of treatment, blood was collected from mice in each treatment group and analyzed for hemoglobin, white blood count, and platelets. Serum chemistries were also obtained to determine the levels of liver enzymes aspartate aminotransferase (AST) and alanine aminotransferase (ALT), renally cleared metabolites blood urea nitrogen (BUN) and creatinine, as well as total protein and glucose. The mice treated with SW134 were noted to have a statistically significant decrease in hemoglobin and an increase in white blood count compared to those treated with SW43 or vehicle control. Click here for file […]
Table S2: Complete b l o od count and ser um chemistries f or SCI D mice treated with SW IV-134, SW43, and vehicle. SC ID m ic e were treated daily with intra- peritoneal injections of SW 134, SW 43, and vehicle control fo r 3 weeks. At the end of treatment, bloo d was co lle ct ed from mice in each treatment gro up and analyzed for hemoglobin, w hit e bloo d co un t , and plate lets. S e r um chemistries were also obtained to determine the levels of l iv e r enzymes as pa rt at e aminotransferase ( A ST ) and alanine aminotransferase (ALT), renally cleared metabolites blood urea nitrogen ( BUN) and creatinine, as well as tot al protein a nd gl uco s e. The mice treated w it h SW IV- 134 were no te d to have a statistically significant decrease in hemoglobin and an increase in w hit e bloo d co u nt compared to those treated with SW43 or vehicle control.

[4] = SCID mice, daily i.p. 3 weeks, end of treatment

Row | SMILES | Killing activity (cell viability) [1] | Activation of caspase 3, caspase 8, and caspase 9 [2] | ALT, mean [3, 4] | AST, mean [3, 4] | BUN, mean [3, 4] | Creatinine, mean [3, 4] | Glucose, mean [3, 4] | Hemoglobin, mean [3, 4] | Platelet, mean [3, 4] | Total bilirubin, mean [3, 4] | Total protein, mean [3, 4] | WBC, mean [3, 4] | Splenomegaly ([3]; i.p. daily for 3 weeks) | Peritonitis at necropsy ([3]; i.p. daily for 3 weeks)
1 | COc1ccc(C)cc1NC(=O)OC1CC2CCCC(C1)N2CCCCCCCCCCN[C@@H](C)C(=O)N[C@H](C(=O)N1CCC[C@H]1C(=O)N[C@@H]1CCCc2ccccc21)C(C)(C)C (some centres unmarked) [SW IV-134] | greater cytotoxicity | induced | 84.0 u/L | 91.4 u/L | 24.8 mg/dL | 0.4 mg/dL | 103.6 mg/dL | 9.5 g/dL | 1063.8 103 /µl | 0.1 mg/dL | 6.0 g/dL | 19.3 103 /µl | mild splenomegaly | mild to moderate peritonitis
2 | COc1ccc(C)cc1NC(=O)OC1CC2CCCC(C1)N2CCCCCCCCCCN (centres unmarked) [SW43, reference compound] | effective against different ovarian cancer cell lines |  | 56.0 u/L |  | 22.3 mg/dL | 0.3 mg/dL |  | 11.7 g/dL |  | 0.1 mg/dL | 5.8 g/dL | 3.2 103 /µl |  | mild to moderate peritonitis
